Values joined by “and” are separate entries in the source; they are usually repeats but may differ in a detail not shown here. Equal values may be shown once.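 Briefly, cells in 96-well plates were exposed to five compound concentrations for 48 h, and endpoints were estimated by linear interpolation. GI50: concentration for 50% inhibition of growth. The concentration for full growth arrest is given as TGI.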

Some test systems named below: U251 CNS; SK-MEL-5 melanoma; RPMI-8226 leukemia; RXF 393 renal; SF-268 CNS; SN12C renal; SF-539 CNS; NCI-H460 lung; SNB-75 CNS; SF-295 CNS.
Holding throughout (test): NCI-60 cell line screen, 48 h

On to `C[C@H]1CC(=O)[C@@]2(O)C#C/C=C\C#C[C@@H]3Nc4c(cc(O)c5c4C(=O)c4ccccc4C5=O)[C@]24O[C@]314`, for which the TGI in the assay on U251 CNS was 0.453 µM; in the assay on SK-MEL-5 melanoma, 0.123 µM and 0.0412 µM; in the assay with RPMI-8226 leukemia it was 0.249 µM and 0.154 µM; in the assay with RXF 393 renal, 0.0684 µM and 0.242 µM; in the assay on SF-268 CNS, 0.0897 µM and 0.543 µM; in the assay on SN12C renal, 0.0288 µM and 0.0201 µM. Besides, the TGI in the assay on SF-539 CNS is 0.0219 µM and 0.0281 µM; with SNB-75 CNS it was 0.0804 µM and 0.0719 µM; in the assay on SF-295 CNS, 0.0542 µM. In addition, the GI50 was 0.00313 µM in the assay on RPMI-8226 leukemia; 0.0373 µM in the assay on RXF 393 renal; 0.00599 µM in the assay with SF-268 CNS; 0.0025 µM in the assay on SN12C renal; under 0.001 µM in the assay with SF-539 CNS; 0.0025 µM in the assay with NCI-H460 lung. Moreover, the GI50 in the assay on SNB-75 CNS was 0.0062 µM; with SF-295 CNS it was 0.0025 µM.

In the case of `COc1ccccc1OCC(O)CO` (configuration not stated), the GI50 in the assay on U251 CNS, in the assay on SK-MEL-5 melanoma, with RPMI-8226 leukemia, with RXF 393 renal, in the assay on SF-268 CNS and in the assay with SN12C renal was over 100 µM throughout. The GI50 in the assay on SF-539 CNS, in the assay on NCI-H460 lung, in the assay on SNB-75 CNS and in the assay on SF-295 CNS was over 100 µM each time. In addition, the TGI with U251 CNS, in the assay with SK-MEL-5 melanoma, in the assay on RPMI-8226 leukemia, in the assay with RXF 393 renal, in the assay on SF-268 CNS and in the assay on SN12C renal was over 100 µM throughout. The TGI with SF-539 CNS, with NCI-H460 lung, in the assay with SNB-75 CNS and with SF-295 CNS was over 100 µM each time.

`COC(=N)/C(=C1\OC(N)=C(c2ccc(Cl)cc2)C1=O)c1ccc(Cl)cc1`: the TGI in the assay on U251 CNS, in the assay with SK-MEL-5 melanoma, in the assay on RPMI-8226 leukemia, in the assay with RXF 393 renal, with SF-268 CNS and with SN12C renal was over 100 µM in each case. The TGI in the assay with SF-539 CNS, in the assay with NCI-H460 lung, in the assay with SNB-75 CNS and with SF-295 CNS was over 100 µM throughout.

For the molecule `CCNC1=CC(=O)c2ncccc2C1=O`, the GI50 with U251 CNS is 2.49 µM; in the assay with SK-MEL-5 melanoma, 0.298 µM; in the assay on RPMI-8226 leukemia, 7.08 µM; in the assay on RXF 393 renal, 5.65 µM; in the assay with SF-268 CNS, 3.13 µM; in the assay with SN12C renal it was 1.4 µM. The GI50 in the assay on SF-539 CNS was 1.89 µM; in the assay with NCI-H460 lung, 0.439 µM; in the assay with SNB-75 CNS, 1.19 µM; in the assay on SF-295 CNS, 1.23 µM. For the same molecule, the TGI in the assay with U251 CNS worked out at 13.6 µM; in the assay with SK-MEL-5 melanoma, 1.11 µM; in the assay on RPMI-8226 leukemia, 29.6 µM; with RXF 393 renal, 17.9 µM; in the assay with SF-268 CNS it was 17.3 µM; in the assay with SN12C renal it was 2.78 µM. Besides, the TGI with SF-539 CNS was determined as 3.76 µM; in the assay with NCI-H460 lung, 2 µM; with SNB-75 CNS it was 2.45 µM; in the assay on SF-295 CNS it was 2.56 µM.

Regarding `CC(Cl)CC(=O)Nc1ccc2c(c1)oc(=O)c1cc(NC(=O)CC(C)Cl)ccc12` (configuration not stated), the GI50 with U251 CNS is 11.1 µM; in the assay on SK-MEL-5 melanoma, 11.5 µM; in the assay on RPMI-8226 leukemia, 1.46 µM; in the assay with RXF 393 renal it was 0.762 µM; in the assay with SF-268 CNS it was 10.1 µM; with SN12C renal it was 16.4 µM. Also, the GI50 with SF-539 CNS is 14.4 µM; with NCI-H460 lung, 13.7 µM; in the assay with SNB-75 CNS, 15.1 µM; in the assay with SF-295 CNS it was 10.1 µM. Further, the TGI in the assay with U251 CNS came out at 23.7 µM; with SK-MEL-5 melanoma, 27.9 µM; in the assay on RPMI-8226 leukemia it was 23.4 µM; in the assay on RXF 393 renal it was 22 µM; with SF-268 CNS it was 33.3 µM; with SN12C renal it was 32 µM. In addition, the TGI with SF-539 CNS is 33.1 µM; in the assay with NCI-H460 lung, 40.9 µM; in the assay with SNB-75 CNS, 48.7 µM; with SF-295 CNS, 36.5 µM.

For the molecule `O=c1c2c(=NCCCN3CCCC3)cc3c(=O)n(CCCN4CCCC4)c(=O)c4c(NCCCN5CCCC5)cc(c(O)n1CCCN1CCCC1)c2c4-3`, the GI50 was 0.647 µM in the assay with U251 CNS; 2.67 µM in the assay on SK-MEL-5 melanoma; 4.39 µM with RPMI-8226 leukemia; 2.83 µM with RXF 393 renal; 2.23 µM in the assay on SF-268 CNS; 3.11 µM in the assay with SN12C renal. Besides, the GI50 was 2.42 µM in the assay on SF-539 CNS, 1.78 µM with NCI-H460 lung, 1.64 µM in the assay on SNB-75 CNS and 1.95 µM in the assay on SF-295 CNS. For the same molecule, the TGI came to 10.4 µM with U251 CNS; 7.17 µM in the assay on SK-MEL-5 melanoma; 45.8 µM in the assay on RPMI-8226 leukemia; 8.23 µM in the assay with RXF 393 renal; 8.66 µM with SF-268 CNS; 34.2 µM in the assay on SN12C renal. Besides, the TGI was found to be 8.98 µM in the assay on SF-539 CNS, 4.01 µM in the assay on NCI-H460 lung, 4.1 µM in the assay with SNB-75 CNS and 8.61 µM in the assay on SF-295 CNS.

`CCn1cc(C2NC(=O)c3cc(F)ccc3N2)c2cccc(Cl)c21` (configuration not stated): the GI50 in the assay on U251 CNS was 0.33 µM; with SK-MEL-5 melanoma, 0.446 µM; in the assay with RPMI-8226 leukemia it was 0.359 µM; with RXF 393 renal, 0.149 µM; in the assay on SF-268 CNS, 1.92 µM; with SN12C renal, 0.706 µM. The GI50 was 0.177 µM in the assay with SF-539 CNS, 0.32 µM with NCI-H460 lung, 0.123 µM in the assay with SNB-75 CNS and 0.1 µM with SF-295 CNS. Besides, the TGI in the assay with U251 CNS was over 100 µM; in the assay on SK-MEL-5 melanoma, over 100 µM; in the assay with RPMI-8226 leukemia it was over 100 µM; in the assay with RXF 393 renal, 0.674 µM; in the assay on SF-268 CNS it was over 100 µM; in the assay on SN12C renal it was over 100 µM. Also, the TGI in the assay with SF-539 CNS was 0.683 µM; in the assay with NCI-H460 lung, over 100 µM; in the assay on SNB-75 CNS, 11.9 µM; with SF-295 CNS, over 58.3 µM.

Regarding `Clc1cccc(C2SCc3nc4ccccc4n32)c1Cl` (configuration not stated), the TGI in the assay on U251 CNS is 31.7 µM; with SK-MEL-5 melanoma, 27.3 µM; with RPMI-8226 leukemia, 90.6 µM; in the assay on RXF 393 renal, 29.6 µM; in the assay on SF-268 CNS, 36.5 µM; with SN12C renal, 32.5 µM. Further, the TGI in the assay with SF-539 CNS was determined as 32.5 µM; in the assay with NCI-H460 lung it was 34.6 µM; in the assay with SNB-75 CNS it was 18.6 µM; in the assay on SF-295 CNS it was 30.4 µM.

Take `C=C1C(=O)O[C@H]2[C@H](OC(C)=O)[C@@H](C)CCC/C(C)=C/CC[C@]3(CO3)[C@H](O)C[C@@H]12`: the GI50 in the assay on U251 CNS is 3.71 µM; in the assay with SK-MEL-5 melanoma, 13.4 µM; in the assay on RPMI-8226 leukemia, 1.84 µM; with RXF 393 renal, 3.16 µM; in the assay with SF-268 CNS, 3.93 µM; with SN12C renal it was 4.26 µM. For the same molecule, the GI50 in the assay on SF-539 CNS is 3.2 µM; in the assay on NCI-H460 lung, 5.35 µM; in the assay on SNB-75 CNS, 10.8 µM; with SF-295 CNS, 19.7 µM. Besides, the TGI in the assay with U251 CNS came to 12.4 µM; in the assay with SK-MEL-5 melanoma, 27.4 µM; in the assay with RPMI-8226 leukemia it was 5.49 µM; with RXF 393 renal, 11.7 µM; in the assay with SF-268 CNS it was 13.6 µM; with SN12C renal, 14.3 µM. Also, the TGI with SF-539 CNS is 9.27 µM; in the assay with NCI-H460 lung, 17.5 µM; with SNB-75 CNS, 22.9 µM; in the assay on SF-295 CNS it was 49.3 µM.

In the case of `Cn1cc(/C=C2\C(=O)Nc3cccnc32)c2ccccc21`, the GI50 in the assay on U251 CNS was over 25 µM; with SK-MEL-5 melanoma, 9.2 µM; in the assay on RPMI-8226 leukemia, over 25 µM; in the assay on RXF 393 renal, 10.8 µM; in the assay with SF-268 CNS, over 21.7 µM; with SN12C renal, 9.88 µM. Besides, the GI50 in the assay on SF-539 CNS is over 25 µM; with NCI-H460 lung, 16.4 µM; with SNB-75 CNS, over 19.6 µM; with SF-295 CNS, over 25 µM. The TGI in the assay on U251 CNS, in the assay on SK-MEL-5 melanoma, with RPMI-8226 leukemia, in the assay on RXF 393 renal, in the assay with SF-268 CNS and in the assay on SN12C renal was over 25 µM each time. Also, the TGI with SF-539 CNS, in the assay on NCI-H460 lung, in the assay with SNB-75 CNS and with SF-295 CNS was over 25 µM each time.

Regarding `Cc1cc(I)cc(CN(C)CCCCN2CCCC2)c1O`, the GI50 with U251 CNS was 18.9 µM; in the assay on SK-MEL-5 melanoma, 12.7 µM; with RPMI-8226 leukemia, 15.1 µM; with RXF 393 renal it was 11.8 µM; in the assay on SF-268 CNS, 18.1 µM; in the assay on SN12C renal, 52.2 µM. The GI50 is 14.7 µM with SF-539 CNS, 17.3 µM in the assay with NCI-H460 lung, 16.5 µM with SNB-75 CNS and 13.2 µM in the assay with SF-295 CNS. In addition, the TGI in the assay on U251 CNS is 49.5 µM; in the assay on SK-MEL-5 melanoma, 25.2 µM; in the assay with RPMI-8226 leukemia it was 36 µM; with RXF 393 renal it was 31.8 µM; in the assay on SF-268 CNS, 55.7 µM; with SN12C renal it was over 100 µM. Further, the TGI with SF-539 CNS was determined as 28.7 µM; with NCI-H460 lung it was 45.9 µM; in the assay with SNB-75 CNS it was 36.9 µM; in the assay with SF-295 CNS, 28.6 µM.

Consider `OCC1CC2CC1C1(C2)OCCO1` (configuration not stated), for which the TGI in the assay with U251 CNS, in the assay with SK-MEL-5 melanoma, in the assay with RPMI-8226 leukemia, with RXF 393 renal, with SF-268 CNS and in the assay with SN12C renal was over 100 µM in each case. Besides, the TGI with SF-539 CNS, with NCI-H460 lung, with SNB-75 CNS and in the assay on SF-295 CNS was over 100 µM in each case.

As to `O=C(O)CNS(=O)(=O)c1ccc(NC(=O)c2cccc([N+](=O)[O-])c2)cc1`, the TGI in the assay with U251 CNS, with SK-MEL-5 melanoma, in the assay with RPMI-8226 leukemia, in the assay on RXF 393 renal, in the assay on SF-268 CNS and in the assay with SN12C renal was over 100 µM in each case. In addition, the TGI in the assay on SF-539 CNS, in the assay on NCI-H460 lung, in the assay with SNB-75 CNS and with SF-295 CNS was over 100 µM throughout.

The values are drawn from PubChem BioAssay (NCI).
